In one test the target is T1, RsTAL (Cereibacter sphaeroides, UniProt Q3IWB0).
T1 construct: His8 (octahistidine), thrombin-cleavable (N, cleaved yes); made in house; host or cells: E. coli BL21(DE3)
T1 sequence (Q3IWB0 1-523): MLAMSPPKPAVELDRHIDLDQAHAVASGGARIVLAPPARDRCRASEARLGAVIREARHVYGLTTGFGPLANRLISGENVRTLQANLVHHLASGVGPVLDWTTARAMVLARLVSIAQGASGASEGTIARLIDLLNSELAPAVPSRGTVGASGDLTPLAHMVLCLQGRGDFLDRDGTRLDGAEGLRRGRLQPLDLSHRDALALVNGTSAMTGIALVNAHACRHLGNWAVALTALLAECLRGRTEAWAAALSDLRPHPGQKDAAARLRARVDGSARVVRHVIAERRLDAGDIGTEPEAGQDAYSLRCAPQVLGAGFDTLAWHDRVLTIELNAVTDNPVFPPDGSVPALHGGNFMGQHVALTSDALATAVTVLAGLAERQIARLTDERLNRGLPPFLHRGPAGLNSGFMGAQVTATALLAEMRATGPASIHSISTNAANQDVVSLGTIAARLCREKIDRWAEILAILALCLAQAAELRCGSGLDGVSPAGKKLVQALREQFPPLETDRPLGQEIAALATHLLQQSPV
The test can be described thus: Crystal soaking experiments of RsTAL with ligands. It is filed as binding, Rhodobacter sphaeroides. The note with it: wild type RsTAL crystals soaked with ligand. The method, then:
Monoclinic crystals of RsTAL (space group […]) were grown from a 1:1 mixture of protein solution (20 mg/ml in 12.5 mM Tris-HCl, pH 7.5, 50 mM NaCl) and a reservoir solution (0.1 M MOPSO—Na^+, pH 7.0, 7% (w/v) polyethylene glycol 8000, 0.3 M ammonium acetate, 2 mM dithiothreitol, 35 mM cyclohexylbutanoyl-N-hydroxyethylglucamide) using vapor diffusion against reservoir solutions at 4° C. Crystal growth typically occurred over a period of one to three weeks and was expedited through microseeding. […] Crystals of RsTAL in complex with small molecule ligands were produced by soaking crystals for 24-48 hrs in reservoir solutions supplemented with 10-20 mM coumaric acid, caffeic acid, cinnamic acid or AIP.

In a further test the target is SmPAL. The settings on record: substrate L-Phe, read-out: AIP Ki; cited from earlier work.
Test [1] addresses T2, Rhodobacter sphaeroides tyrosine ammonia lyase (RsTAL) variant H89F (His89Phe) (Cereibacter sphaeroides, UniProt Q3IWB0, H89F).
T2 sequence (Q3IWB0 1-523 H89F): T1 sequence (Q3IWB0 1-523) with H89F
The test can be described thus: Inhibition of PAL activity of H89F RsTAL by AIP. It is filed as biochemical. More on the design: mutant proteins were expressed and purified as described for wild type RsTAL; octahistidine (His8), thrombin-cleavable (N, cleaved yes); made in house; host or cells: E. coli BL21(DE3). The method, then: (§1) The inhibition of enzyme activity by AIP was measured with a similar assay system, except that the enzyme was pre-incubated for 7 min in the presence of fixed concentrations of AIP. Inhibition of PAL activity of wild type RsTAL was measured with 15 μg protein, six AIP concentrations between 0 and 20 μM, and initial L-Phe concentrations between 9.6 and 25.6 mM. Inhibition of PAL activity of the H89F mutant was measured with 10 μg protein, five AIP concentrations between 0 and 5 μM, with initial L-Phe concentrations between 0.4 and 1.6 mM. Duplicate sets of enzyme assays were performed and a Dixon plot was used for the estimation of the AIP inhibition constant, Ki. AIP was a gift from Dr. Jerzy Zon, Wroclaw University, Poland.

For the next test, the target named is T3, H89F RsTAL (Cereibacter sphaeroides, UniProt Q3IWB0, H89F).
T3 construct: mutant proteins were expressed and purified as described for wild type RsTAL; His8 (octahistidine), thrombin-cleavable (N, cleaved yes); made in house; host or cells: E. coli BL21(DE3)
T3 sequence (Q3IWB0 1-523 H89F): T1 sequence (Q3IWB0 1-523) with H89F
The test can be described thus: Inhibition of PAL activity by AIP, H89F RsTAL. It is filed as biochemical, Rhodobacter sphaeroides. The method, then:
as §1

The target of another test is T4, wild type RsTAL (Cereibacter sphaeroides, UniProt Q3IWB0).
T4 construct: only residues 1 to 7 and the C-terminal residue 523 of each of the eight RsTAL monomers are poorly ordered; His8 (octahistidine), thrombin-cleavable (N, cleaved yes); made in house; host or cells: E. coli BL21(DE3)
T4 sequence (Q3IWB0 1-523): T1 sequence (Q3IWB0 1-523)
The test can be described thus: Inhibition of enzyme activity by AIP, wild type RsTAL. It is filed as biochemical, Rhodobacter sphaeroides. The method, then: as §1

The target in another test is PcPAL (Petroselinum crispum, UniProt P24481). The settings on record: substrate L-Phe, read-out: AIP Ki; cited from earlier work.

The values that follow come from patent US20090011400A1, “Substrate switched ammonia lyases and mutases” (The Salk Institute for Biological Studies and The Regents …, priority 2006, published 2009).

For orientation: Ki means a dissociation constant, usually derived from enzyme kinetics or from competition with a known ligand.

The structures appear in SMILES notation. Changes are numbered by the printed parent chain.

Turning to `NC1(P(=O)(O)O)Cc2ccccc2C1` [AIP, 2-aminoindan-2-phosphonate], the “binding observed in RsTAL crystals (in words)” value on RsTAL is on record as “no significant binding”. The Ki on SmPAL is 1810 nM; in test [1], 600 nM; on H89F RsTAL (H89F RsTAL, substrate L-Phe, Dixon plot), 600 nM; at wild type RsTAL (wt RsTAL, substrate L-Phe, Dixon plot) it was 16300 nM; on PcPAL, 25 nM. Besides, the “Ki lower than for wild type RsTAL” value on H89F RsTAL (H89F mutant with L-Phe versus wild type RsTAL) came out at 27 fold. Moreover, the “inhibition of RsTAL activity by AIP (in words)” value on wild type RsTAL (wild type RsTAL) is listed as “weak inhibition”. The “effect of AIP on activity with L-Tyr (in words)” value on wild type RsTAL (wild type RsTAL, substrate L-Tyr) is given as “unaffected”.
